In PMC11722313 (bioRxiv, 2025):

Assays:
[1] = SEC-SAXS of IDE constructs; assay type: physicochemical, human; conditions: Guinier method
[2] = Size-exclusion chromatography elution of IDE constructs; assay type: physicochemical, human; conditions: S200 SEC column
IDE [3] = test: Cryo-EM of IDE in the presence of sub-saturating insulin; set-up: species or system human
IDE [4] = conditions: time-resolved SAXS; ref Zhang et al., 2018; cited from earlier work
IDE [5] = conditions: HDX-MS; ref Zhang et al, 2018; cited from earlier work
[6] = target: IDE R668A (human insulin degrading enzyme, cysteine-free) (Homo sapiens, UniProt P14735, C110L/C171S/C178A/C257V/C414L/C573N/C590S/C789S/C812A/C819A/C904S/C966N/C974A/R668A); test: Competition assay: inhibition of MCA-[…]; assay type: biochemical; conditions: 5 nM IDE R668A, 5 μM MCA-RPPGFSAFK(Dnp), pH 7.5, 37° C; average of three technical replicates
Sequence of IDE R668A (human insulin degrading enzyme, cysteine-free) (P14735 42-1019 C110L/C171S/C178A/C257V/C414L/C573N/C590S/R668A/C789S/C812A/C819A/C904S/C966N/C974A limits assumed): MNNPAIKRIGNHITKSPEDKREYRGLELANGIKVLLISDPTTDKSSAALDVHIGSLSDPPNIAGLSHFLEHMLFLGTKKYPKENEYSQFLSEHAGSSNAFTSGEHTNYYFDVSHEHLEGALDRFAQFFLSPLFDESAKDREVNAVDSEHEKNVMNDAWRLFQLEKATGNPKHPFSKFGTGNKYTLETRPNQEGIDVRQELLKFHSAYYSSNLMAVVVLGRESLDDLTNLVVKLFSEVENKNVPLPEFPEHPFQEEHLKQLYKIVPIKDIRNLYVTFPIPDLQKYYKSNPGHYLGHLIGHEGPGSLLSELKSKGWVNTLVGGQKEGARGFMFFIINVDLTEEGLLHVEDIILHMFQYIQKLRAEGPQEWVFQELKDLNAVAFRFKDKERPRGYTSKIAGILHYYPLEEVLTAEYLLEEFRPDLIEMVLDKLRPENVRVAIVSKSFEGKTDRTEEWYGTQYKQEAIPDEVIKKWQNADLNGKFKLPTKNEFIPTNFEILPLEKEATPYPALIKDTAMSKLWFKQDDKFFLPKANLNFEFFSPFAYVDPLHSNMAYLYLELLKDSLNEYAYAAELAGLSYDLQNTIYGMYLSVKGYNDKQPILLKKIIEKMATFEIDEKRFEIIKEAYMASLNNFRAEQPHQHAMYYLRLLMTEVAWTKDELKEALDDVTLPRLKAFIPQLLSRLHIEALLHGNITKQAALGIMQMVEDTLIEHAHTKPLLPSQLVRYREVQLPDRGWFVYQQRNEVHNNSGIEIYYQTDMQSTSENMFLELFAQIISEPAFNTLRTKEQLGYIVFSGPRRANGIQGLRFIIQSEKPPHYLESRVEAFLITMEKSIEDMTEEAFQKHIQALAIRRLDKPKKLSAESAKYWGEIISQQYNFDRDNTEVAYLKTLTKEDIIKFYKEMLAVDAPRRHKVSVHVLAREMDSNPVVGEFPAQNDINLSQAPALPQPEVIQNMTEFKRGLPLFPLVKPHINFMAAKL

[7] = IDE:insulin 2:1, compared with previously reported O and pO states

R668A: IDE carrying a R668 to alanine (R668A) point mutation
Rg (Guinier) [1]: 54.7 +/− 0.4 Å | SEC elution relative to WT IDE [2]: eluted slightly earlier than WT IDE

insulin: IDE substrate; purchased from MP Biomedicals (#0219390010) for enzymatic assays, SIGMA (91077C) for cryo-EM
closing of pO and O subunits in presence of insulin (D1-D4 COM distance) (IDE [3]; [7]): 3–5 Å | reduction of D1-D2-D3-D4 COM dihedral in presence of insulin (IDE [3]; [7]): 5–10 ° | dominant IDE state with sub-saturating insulin (IDE [3]; IDE:insulin molar ratio 2:1, cryo-EM): the pC/pC was still found to be dominant | time constant tau for the insulin induced open to closed transition (IDE [4]): ~ 100 milliseconds

O=C(C[C@@H](Cc1ccc2ccccc2c1)n1cc(CNC(=O)c2ccc(F)cc2)nn1)NO [BDM-44768]
deuterium exchange of the R668-containing peptide vs apo-IDE (IDE [5]): the peptide containing R668 shows reduced deuterium exchange relative to apo-IDE

Aβ(1–40): amyloid-β 1–40, an unstructured substrate of IDE
competition of MCA-RPPGFSAFK(Dnp) degradation, IDE R668A (in words) [6]: did not exhibit a dose-dependent response to the presence of Aβ and the data could not be fit to any kinetic equation
